{"source": "paper PMC5713897", "about": "(Investigative Ophthalmology & Visual Science, 2017)", "key": {"[1]": {"experiment": "Phase solubility study of ilomastat with 2-hydroxypropyl-β-cyclodextrin (HPLC)", "type": "physicochemical", "protocol": "The mixture was left to stir overnight.\nA flow rate of 1 mL/min was used with 0.1% trifluoroacetic acid in water and acetonitrile as eluents A and B, respectively, with a linear gradient from 80% A to 70% B in 17 minutes. The detection wavelength was 280 nm.\nThe mixture was left to stir overnight. Benzalkonium chloride (BAC) (0.8 mg) was then added to the mixture, and the mixture was filtered (0.22 μm PES)."}, "[2]": {"settings": "cited from earlier work"}, "[3]": {"test_system": "Human Tenon fibroblast cells (HTFs)", "quoted_text": "Human Tenon fibroblast cells (HTFs) were maintained in fibroblast culture medium composed of Dulbecco's modified Eagle's medium (DMEM) supplemented with 10% (vol/vol) fetal bovine serum (FBS), 2 mM L-glutamine, 100 IU/mL penicillin, and 100 g/mL streptomycin (all from Gibco Life Technologies, Paisley, Scotland, UK) at 37°C with 5% (vol/vol) CO2 in air. The medium was changed every 3 to 4 days until cells reached confluence. The cells were passaged at a ratio of 1:4. Cultures were used between passages 3 and 10 for the gel contraction experiments.[33]\nHTF cells (7 × 10^4 cells/mL) were seeded in collagen type-1 lattice (150 μL) in a Matteck dish. […] The drug solutions were added to the lattice (2 mL) at each individual concentration and incubated at 37°C. The gels were imaged daily from day 0 to day 7, and the percent contraction was calculated based on the decrease in gel area using ImageJ software (http://imagej.nih.gov/ij/; provided in the public domain by the National Institutes of Health, Bethesda, MD, USA). […] Each formulation was tested in triplicate."}, "[4]": {"settings": "weak hydroxamic acid; cited from earlier work"}}, "note": "Like-named read-outs stand apart in the source and are kept apart here.", "data": [{"smiles": "CNC(=O)[C@H](Cc1c[nH]c2ccccc12)NC(=O)[C@@H](CC(=O)NO)CC(C)C", "note": "[ilomastat]", "values": [{"measurement": "solubility", "setting": "[1]; PBS, pH 7.4, read-out: aqueous solubility in PBS (pH 7.4)", "value": 160, "unit": "µg/mL"}, {"measurement": "solubility", "setting": "[1]; water, read-out: aqueous solubility in water", "value": 140, "unit": "µg/mL"}, {"measurement": "solubility in balanced salt solution", "setting": "[2]; balanced salt solution, 35.5°C", "value": 161, "unit": "µg/mL"}, {"measurement": "inhibition of collagen gel contraction (in words)", "setting": "[3]; 7-day incubation", "value": "significantly inhibited collagen gel contraction"}, {"measurement": "gel contraction", "setting": "[3]; day 7, 0.01 μM ilomastat, HTFs in collagen, n = 3", "value": "51.79% ± 2.05"}, {"measurement": "pKa", "setting": "[4]", "value": 8.9}]}, {"smiles": "CC(O)COC[C@H]1O[C@@H]2O[C@H]3[C@H](O)[C@@H](O)[C@@H](O[C@H]4[C@H](O)[C@@H](O)[C@@H](O[C@H]5[C@H](O)[C@@H](O)[C@@H](O[C@H]6[C@H](O)[C@@H](O)[C@@H](O[C@H]7[C@H](O)[C@@H](O)[C@@H](O[C@H]8[C@H](O)[C@@H](O)[C@@H](O[C@H]1[C@H](O)[C@H]2O)O[C@@H]8COCC(C)O)O[C@@H]7COCC(C)O)O[C@@H]6COCC(C)O)O[C@@H]5COCC(C)O)O[C@@H]4COCC(C)O)O[C@@H]3COCC(C)O", "note": "(stereo partly drawn) [2-Hydroxypropyl-β-cyclodextrin]", "values": [{"measurement": "water solubility", "setting": "[2]; water", "value": 450000, "unit": "µg/mL"}]}]}
